The target of test [1] is T1, SmMCM (methylmalonyl-CoA mutase from S. meliloti) (Rhizobium meliloti, UniProt O86028).
T1 construct: made in house; host or cells: E. coli BL21(DE3)pLysS
T1 sequence (O86028 2-712): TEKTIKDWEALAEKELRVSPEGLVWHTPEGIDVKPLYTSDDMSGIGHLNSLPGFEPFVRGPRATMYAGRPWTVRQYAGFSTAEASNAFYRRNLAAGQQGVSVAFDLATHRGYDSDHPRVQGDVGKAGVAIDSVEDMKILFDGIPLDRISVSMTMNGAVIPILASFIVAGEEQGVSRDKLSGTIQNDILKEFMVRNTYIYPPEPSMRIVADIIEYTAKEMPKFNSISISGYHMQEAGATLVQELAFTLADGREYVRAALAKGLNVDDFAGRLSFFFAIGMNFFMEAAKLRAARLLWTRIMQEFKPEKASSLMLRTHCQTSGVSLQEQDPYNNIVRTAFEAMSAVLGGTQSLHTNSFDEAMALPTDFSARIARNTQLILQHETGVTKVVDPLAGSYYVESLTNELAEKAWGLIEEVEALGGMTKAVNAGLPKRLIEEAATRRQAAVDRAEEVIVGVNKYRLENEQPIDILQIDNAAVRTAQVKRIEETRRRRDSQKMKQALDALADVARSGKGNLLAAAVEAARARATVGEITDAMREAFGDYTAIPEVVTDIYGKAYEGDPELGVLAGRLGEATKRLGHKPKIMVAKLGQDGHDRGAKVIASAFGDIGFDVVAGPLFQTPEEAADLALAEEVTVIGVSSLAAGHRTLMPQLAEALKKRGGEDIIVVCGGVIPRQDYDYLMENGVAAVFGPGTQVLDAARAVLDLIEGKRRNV
In words: biochemical. The format is binding, Sinorhizobium meliloti. The following applies: SmMCM 0.2 μM, pH 7.5, 30°C; average and standard deviation for three or more independent experiments; n. d. = binding too weak to determine Kd. As for the experimental part:
(§1) All steps involving cobamides were conducted in the dark. The plate was centrifuged for 1 min at 3,800 rpm to level the surface of the liquid in each well. The plate was then incubated for 40 min at 30°C to allow binding, with a brief shaking step after 30 min. […] Following incubation, fluorescence emission at 340 nm (5-nm slit width) was measured upon excitation at 282 nm (5-nm slit width) using a Tecan Infinite M1000 Pro plate reader. Fluorescence, normalized to the initial value, was plotted as a function of cobamide concentration, and fitted to the following equation ([134]): F/F0=1+ΔFmax/F0([E]+[L]+Kd)−([E]+[L]+Kd)^2−4[E][L]/2[E] where F is fluorescence, F0 is initial fluorescence, [E] is total enzyme concentration, [L] is total ligand concentration, and Kd is the binding dissociation constant.

Test [2] has as its target T2, EcMCM (E. coli MCM) (Escherichia coli, UniProt P27253).
T2 construct: 6xHis (N); made in house; host or cells: E. coli BL21(DE3)
In words: Fluorescence binding assay, EcMCM. The following applies: read-out: Kd EcMCM; fitted curve, error = standard error of the curve fit. As for the experimental part:
as §1

In test [3] the target is VpMCM (V. parvula MCM) (Veillonella parvula, UniProt A0A124EFR6). In words: Fluorescence binding assay, VpMCM. The following applies: fitted curve, error = standard error of the curve fit; equimolar α and β subunits. The procedure:
The α subunit of VpMCM (encoded by Vpar_RS09005) was expressed with an N-terminal 6×His tag from the pET-Duet expression vector in E. coli BL21(DE3). Protein expression was induced with 520 μM IPTG for 6 h at 30°C. The protein was batch purified by nickel affinity and subsequently purified by FPLC using a HiTrapQ column with an NaCl gradient from 50 to 500 mM in […], pH 8.0, 10% glycerol. The β subunit of VpMCM (encoded by Vpar_RS09000) was expressed separately with an N-terminal 6×His tag from the pET-Duet expression vector in E. coli BL21(DE3). […] Purified protein was dialyzed into 25 mM Tris-HCl, pH 8.0, 300 mM NaCl, 10% glycerol, and 1 mM β-mercaptoethanol. Concentration of pure α and β subunits (Fig. S7) was determined by absorbance at 280 nm (A280) using the theoretically calculated extinction coefficients 75,290 M^−1 cm^−1 and 74,260 M^−1 cm^−1, respectively ([125]). Equimolar amounts of α and β subunits were combined during the setup of fluorescence binding assays.
as §1

Test [4] addresses T3, SmMCM (Sinorhizobium meliloti MCM) (Rhizobium meliloti, UniProt O86028).
T3 construct: made in house; host or cells: E. coli BL21(DE3)pLysS
T3 sequence (O86028 2-712): T1 sequence (O86028 2-712)
The test is described as follows: Thiokinase-coupled spectrophotometric MCM activity assay. The following applies: SmMCM 50 nM reconstituted with 2 μM cobamide; (R)-methylmalonyl-CoA to succinyl-CoA, steady state, 30°C. The format is biochemical. The procedure:
Final concentrations of reagents in the assays were as follows: Tris-phosphate buffer (pH 7.5), 100 mM Tris, 50 mM phosphate; dithionitrobenzoate (DTNB), 400 μM; ADP, 1 mM; MgCl2, 10 mM; (R)-methylmalonyl-CoA, 0 to 4 mM; thiokinase, 5 μM; MCM, 50 nM; and cobamides, 2 μM.
Three separate mixes were prepared, all in 1× Tris-phosphate buffer: an assay mix containing DTNB, ADP, and MgCl2; a substrate mix containing (R)-methylmalonyl-CoA; and an enzyme mix containing thiokinase, MCM, and cobamides. All steps involving cobamides were conducted in the dark. The assay and enzyme mixes were prepared as a master mix and aliquoted into 96-well plates; substrate mixes were prepared in individual wells, in triplicate. All components were incubated at 30°C for 40 min to equilibrate temperature and allow prebinding of cobamides and MCM. After incubation, one replicate at a time, the substrate mix was added to the assay mix, followed by the enzyme mix. Absorbance at 412 nm (A412) was recorded immediately after addition of enzyme and for 1 to 3 min, every 3 s, on a BioTek Synergy 2 plate reader. The increase in A412 in reaction mixtures lacking substrate was subtracted from all readings, to account for reactivity of DTNB with thiols on protein surfaces.

Test [5] relates to S. meliloti cobD::gus Gm^r metH::Tn5 ΔnrdJ pMS03-nrdABEc^+. In words: MCM-dependent growth of S. meliloti on isoleucine/valine. The format is cell-based, Sinorhizobium meliloti. The following applies: for EC50: OD600 at 145 h, L-isoleucine and L-valine as sole carbon sources, average and SD for five or more biological replicates, read-out: EC50 (concentration required to achieve half of the maximal OD600); for EC50 fold higher than CNCbl: MCM-dependent growth. The procedure:
Because nrdJ is essential, the E. coli cobamide-independent ribonucleotide reductase encoded by nrdA and nrdB was expressed from the pMS03 plasmid ([143]). The strain was precultured in M9 medium ([144]) (modified concentration of MgSO4: 1 mM) containing 0.1% sucrose, 2 g/liter isoleucine, 2 g/liter valine, 1 g/liter methionine, and 20 μg/ml gentamicin, with shaking at 30°C. After 2 days, cells were washed and diluted to an OD600 of 0.02 into M9 medium containing 4 g/liter isoleucine, 4 g/liter valine, 1 g/liter methionine, 20 μg/ml gentamicin, and cobamides at various concentrations as indicated for each experiment, in 384-well plates. The plates were incubated at 30°C for 145 h in a BioTek Synergy 2 plate reader with linear shaking at 1,140 cpm. OD600 was measured in 1-h increments.

The term Kd denotes the concentration at which binding is half-saturated. One may read the kcat as the number of substrate molecules converted per active site and unit of time at saturation.

VpMCM (V. parvula MCM), sequence (A0A124EFR6 entry or part of it): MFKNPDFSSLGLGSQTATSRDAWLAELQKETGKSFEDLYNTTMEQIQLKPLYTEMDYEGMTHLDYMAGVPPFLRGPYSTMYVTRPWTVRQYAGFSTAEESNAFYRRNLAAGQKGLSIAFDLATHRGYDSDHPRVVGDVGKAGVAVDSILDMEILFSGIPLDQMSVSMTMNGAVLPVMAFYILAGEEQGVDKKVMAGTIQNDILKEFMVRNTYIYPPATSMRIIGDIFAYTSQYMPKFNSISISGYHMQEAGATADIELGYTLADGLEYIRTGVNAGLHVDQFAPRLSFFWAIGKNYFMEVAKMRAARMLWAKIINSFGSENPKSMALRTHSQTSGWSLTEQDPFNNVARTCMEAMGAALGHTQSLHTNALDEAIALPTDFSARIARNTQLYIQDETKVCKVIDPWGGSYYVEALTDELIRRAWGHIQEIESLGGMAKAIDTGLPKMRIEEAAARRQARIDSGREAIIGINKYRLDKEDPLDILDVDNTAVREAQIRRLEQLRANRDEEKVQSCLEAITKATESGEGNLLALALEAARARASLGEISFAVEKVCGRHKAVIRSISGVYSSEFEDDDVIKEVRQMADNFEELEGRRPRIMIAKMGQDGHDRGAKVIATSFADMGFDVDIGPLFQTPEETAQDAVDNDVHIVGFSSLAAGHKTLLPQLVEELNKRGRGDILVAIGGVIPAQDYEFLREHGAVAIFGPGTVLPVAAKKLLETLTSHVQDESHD
T2 sequence (P27253 whole entry): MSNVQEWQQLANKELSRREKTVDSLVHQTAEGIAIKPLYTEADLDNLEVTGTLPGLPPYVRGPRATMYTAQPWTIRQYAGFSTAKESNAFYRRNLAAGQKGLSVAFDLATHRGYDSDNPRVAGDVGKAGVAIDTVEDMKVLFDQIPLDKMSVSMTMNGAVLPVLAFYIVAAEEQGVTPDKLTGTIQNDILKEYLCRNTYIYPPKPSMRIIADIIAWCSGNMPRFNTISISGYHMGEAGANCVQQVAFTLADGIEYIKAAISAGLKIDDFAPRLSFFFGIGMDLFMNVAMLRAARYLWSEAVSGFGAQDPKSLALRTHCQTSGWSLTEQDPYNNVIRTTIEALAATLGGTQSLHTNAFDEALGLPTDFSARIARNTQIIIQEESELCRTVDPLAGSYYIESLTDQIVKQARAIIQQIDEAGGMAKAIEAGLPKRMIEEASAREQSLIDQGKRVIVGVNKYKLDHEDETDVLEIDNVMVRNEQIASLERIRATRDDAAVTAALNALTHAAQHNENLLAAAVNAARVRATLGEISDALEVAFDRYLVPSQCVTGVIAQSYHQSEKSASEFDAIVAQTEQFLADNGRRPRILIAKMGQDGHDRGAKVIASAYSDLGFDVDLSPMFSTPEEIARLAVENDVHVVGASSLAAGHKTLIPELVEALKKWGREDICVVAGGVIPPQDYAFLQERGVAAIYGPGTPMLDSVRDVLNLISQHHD

Consider `C/C1=C2/[N-][C@H]([C@H](CC(N)=O)[C@@]2(C)CCC(=O)NC[C@@H](C)OP(=O)([O-])O[C@H]2[C@@H](O)[C@@H](Oc3ccccc3)O[C@@H]2CO)[C@]2(C)N=C(/C(C)=C3N=C(/C=C4N=C1[C@@H](CCC(N)=O)C\4(C)C)[C@@H](CCC(N)=O)[C@]\3(C)CC(N)=O)[C@@H](CCC(N)=O)[C@]2(C)CC(N)=O.[CH2-][C@H]1O[C@@H](n2cnc3c(N)ncnc32)[C@H](O)[C@@H]1O.[Co+3]` [Ado[Phe]Cba, Phenolylcobamide], for which the Kd in test [1] came to 200 ± 30 nM; in test [2], 1300 ± 200 nM; in test [3], 5000 ± 1000 nM. The kcat in test [4] is 8.3 ± 0.4 s⁻¹.
Consider Phenolylcobamide [CN[Phe]Cba], for which, in test [5], the EC50 is 400 ± 100 nM.
In test [1], `C/C1=C2/[N-][C@H]([C@H](CC(N)=O)[C@@]2(C)CCC(=O)NC[C@@H](C)OP(=O)([O-])O[C@H]2[C@@H](O)[C@@H](n3cnc4cccc(N)c43)O[C@@H]2CO)[C@]2(C)N=C(/C(C)=C3N=C(/C=C4N=C1[C@@H](CCC(N)=O)C\4(C)C)[C@@H](CCC(N)=O)[C@]\3(C)CC(N)=O)[C@@H](CCC(N)=O)[C@]2(C)CC(N)=O.[CH2-][C@H]1O[C@@H](n2cnc3c(N)ncnc32)[C@H](O)[C@@H]1O.[Co+3]` [Ado[7-AmBza]Cba, 7-Aminobenzimidazolylcobamide] displayed a Kd of 700 ± 100 nM.
As to “5-Hydroxybenzimidazolylcobamide [CN[5-OHBza]Cba]”, the EC50 in test [5] turned out to be 400 ± 100 nM.
Molecule `C/C1=C2/[N-][C@H]([C@H](CC(N)=O)[C@@]2(C)CCC(=O)NC[C@@H](C)OP(=O)([O-])O[C@H]2[C@@H](O)[C@@H](n3cnc4cc(C)ccc43)O[C@@H]2CO)[C@]2(C)N=C(/C(C)=C3N=C(/C=C4N=C1[C@@H](CCC(N)=O)C\4(C)C)[C@@H](CCC(N)=O)[C@]\3(C)CC(N)=O)[C@@H](CCC(N)=O)[C@]2(C)CC(N)=O.[CH2-][C@H]1O[C@@H](n2cnc3c(N)ncnc32)[C@H](O)[C@@H]1O.[Co+3]` [Ado[5-MeBza]Cba, 5-Methylbenzimidazolylcobamide] gave a Kd in test [1] of 100 ± 40 nM. The kcat in test [4] was found to be 12.8 ± 0.5 s⁻¹.
In the case of `C/C1=C2/[N-][C@H]([C@H](CC(N)=O)[C@@]2(C)CCC(=O)NC[C@@H](C)OP(=O)([O-])O[C@H]2[C@@H](O)[C@@H](n3cnc4cccc(C)c43)O[C@@H]2CO)[C@]2(C)N=C(/C(C)=C3N=C(/C=C4N=C1[C@@H](CCC(N)=O)C\4(C)C)[C@@H](CCC(N)=O)[C@]\3(C)CC(N)=O)[C@@H](CCC(N)=O)[C@]2(C)CC(N)=O.[CH2-][C@H]1O[C@@H](n2cnc3c(N)ncnc32)[C@H](O)[C@@H]1O.[Co+3]` [Ado[7-MeBza]Cba, 7-Methylbenzimidazolylcobamide], in test [1], binding was put at a Kd of 100 ± 20 nM.
As to `C/C1=C2/[N-][C@H]([C@H](CC(N)=O)[C@@]2(C)CCC(=O)NC[C@@H](C)OP(=O)([O-])O[C@H]2[C@@H](O)[C@@H](Oc3ccc(C)cc3)O[C@@H]2CO)[C@]2(C)N=C(/C(C)=C3N=C(/C=C4N=C1[C@@H](CCC(N)=O)C\4(C)C)[C@@H](CCC(N)=O)[C@]\3(C)CC(N)=O)[C@@H](CCC(N)=O)[C@]2(C)CC(N)=O.[CH2-][C@H]1O[C@@H](n2cnc3c(N)ncnc32)[C@H](O)[C@@H]1O.[Co+3]` [Ado[Cre]Cba, para-Cresolylcobamide], the Kd in test [1] was determined as 50 ± 10 nM; in test [2], 620 ± 90 nM; in test [3], 1300 ± 100 nM. Besides, the kcat in test [4] was 15 ± 1 s⁻¹.
Take “2-Methyladeninylcobamide [CN[2-MeAde]Cba]”: in test [5], the “EC50 fold higher than CNCbl” value was 5 fold and the EC50 amounted to 24 ± 9 nM.
Regarding para-Cresolylcobamide [CN[Cre]Cba], the EC50 in test [5] was 700 ± 100 nM.
As to `C#N.C/C1=C2/N[C@H]([C@H](CC(N)=O)[C@@]2(C)CCC(=O)NC[C@@H](C)OP(=O)(O)O[C@H]2[C@@H](O)[C@@H](n3cnc4ncnc(N)c43)O[C@@H]2CO)[C@]2(C)N=C(/C(C)=C3N=C(/C=C4N=C1[C@@H](CCC(N)=O)C\4(C)C)[C@@H](CCC(N)=O)[C@]\3(C)CC(N)=O)[C@@H](CCC(N)=O)[C@]2(C)CC(N)=O.[Co]` [CN[Ade]Cba, Adeninylcobamide], the EC50 in test [5] amounted to 350 ± 90 nM.
With `C/C1=C2/[N-][C@H]([C@H](CC(N)=O)[C@@]2(C)CCC(=O)NC[C@@H](C)OP(=O)([O-])O[C@H]2[C@@H](O)[C@@H](n3cnc4nc(C)nc(N)c43)O[C@@H]2CO)[C@]2(C)N=C(/C(C)=C3N=C(/C=C4N=C1[C@@H](CCC(N)=O)C\4(C)C)[C@@H](CCC(N)=O)[C@]\3(C)CC(N)=O)[C@@H](CCC(N)=O)[C@]2(C)CC(N)=O.[CH2-][C@H]1O[C@@H](n2cnc3c(N)ncnc32)[C@H](O)[C@@H]1O.[Co+3]` [Ado[2-MeAde]Cba, 2-Methyladeninylcobamide], the Kd in test [1] came out at 1700 ± 700 nM; in test [2], 350 ± 40 nM; in test [3], 1500 ± 200 nM.
In the case of Benzimidazolylcobamide [CN[Bza]Cba], in test [5], the “EC50 fold higher than CNCbl” value came to 5 fold and the EC50 was determined as 27 ± 7 nM.
In the case of Purinylcobamide [CN[Pur]Cba], the EC50 in test [5] amounted to 600 ± 200 nM.
For the molecule “cyanocobalamin [CNCbl, reference compound]”, the EC50 in test [5] came out at 5 ± 1 nM.

The values are drawn from publication PMC6759758, “Cofactor Selectivity in Methylmalonyl Coenzyme A Mutase, a Model Cobamide-Dependent Enzyme” (mBio, 2019).
